The numbers were not newly measured in patent publication US20040109886A1 (priority 2002, published 2004), which cites them from elsewhere.

The conditions of data set [1]: base.

On to `O=C(CCCN1CC=C(n2c(=O)[nH]c3ccccc32)CC1)c1ccc(F)cc1` [droperidol], for which the pKa in data set [1] was 7.64. Further, the “solubility in acidic water” value (acidic water) is given as “soluble”. Also, where the note is “alcohol”, the solubility in alcohol result is given as “high solubility”.

In general, pKa refers to the pH at which an ionisable group is half protonated.
